Laboratory results as given in patent US7498460B2, “Isophthalic acid derivatives” (Bayer Healthcare AG, priority 2002, dated 2009).

Experiments:
human CysLT2 receptor = target: T1, human CysLT2 receptor (Homo sapiens, UniProt Q9NS75); test: Cellular in vitro test to determine the CysLT2 activity (aequorin luminescence, LTD4 stimulation); type: cell-based; conditions: CHO K1 cells with aequorin and human CysLT2 receptor; agonist LTD4 3×10^−8 M
T1 construct: expressed in transfected cells; host or cells: CHO K1 (ATCC) constitutively expressing aequorin
T1 sequence (Q9NS75 1-346): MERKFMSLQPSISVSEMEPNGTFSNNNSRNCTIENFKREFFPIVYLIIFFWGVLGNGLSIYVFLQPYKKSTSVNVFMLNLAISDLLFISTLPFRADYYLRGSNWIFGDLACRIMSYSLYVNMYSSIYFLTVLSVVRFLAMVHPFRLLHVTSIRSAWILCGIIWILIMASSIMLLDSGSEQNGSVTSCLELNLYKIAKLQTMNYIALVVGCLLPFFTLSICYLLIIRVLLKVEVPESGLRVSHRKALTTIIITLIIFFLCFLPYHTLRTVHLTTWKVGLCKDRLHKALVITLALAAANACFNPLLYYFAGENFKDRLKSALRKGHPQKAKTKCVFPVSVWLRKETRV
From the text: B. Assessment of the Physiological Activity Abbreviations: DMEM Dulbecco's modified Eagle medium FCS Fetal calf serum HEPES 4-(2-hydroxyethyl)-1-piperazineethanesulphonic acid 1. Cellular In Vitro Test to Determine the CysLT2 Activity
A recombinant cell line is used to identify antagonists of the human cysteinyl-leukotriene 2 receptor (CysLT2R) and to quantify the activity of the substances described herein. The cell is originally derived from a hamster ovary epithelial cell (Chinese Hamster Ovary, CHO K1, ATCC: American Type Culture Collection, Manassas, Va. 20108, USA). The test cell line constitutively expresses the calcium-sensitive photoprotein aequorin which, after reconstitution with the cofactor coelenterazine, emits light when the cytoplasmic calcium concentration is increased (Rizzuto R, Simpson A W, Brini M, Pozzan T.; Nature 358 (1992) 325-327). The cell is additionally stably transfected with the human CysLT2 receptor (Heise et.al., JBC 275 (2000) 30531-30536). The resulting CysLT2R test cell responds to stimulation of the recombinant CysLT2 receptor (agonists: leukotriene D4 (LTD4) and leukotriene C4 (LTC4)) with an intracellular release of calcium ions, which can be quantified through the resulting aequorin luminescence with a suitable luminometer (Milligan G, Marshall F, Rees S, Trends in Pharmacological Sciences 17 (1996) 235-237). Preincubation with antagonists of the CysLT2 receptor reduces the calcium release induced by the agonists LTD4 and LTC4 and thus the measured amount of light.
(§1) Test procedure: The cells are plated out two days before the test in culture medium (DMEM/F12 with Glutamax, Gibco Cat.# 61965-026; 10% FCS, Gibco Cat.# 10270-106; 1.4 mM sodium pyruvate, Gibco Cat.# 11360-039; 1.8 mM sodium bicarbonate, Gibco Cat.# 25080-060; 10 mM HEPES, Gibco Cat.# 15290-026; now belongs to Invitrogen GmbH, 76131 Karlsruhe) in 384- (or 1536-)well microtitre plates and kept in a cell incubator (96% humidity, 5% V/V CO2, 37° C.). On the day of the test, the culture medium is replaced by Tyrode solution (in mM: 140 NaCl, 5 KCl, 1 MgCl2, 2 CaCl2; 20 glucose, 20 HEPES) which additionally contains the cofactor coelenterazine (50 μM), and the microtitre plate is then incubated for a further 3-4 hours. 15 minutes after the test substances have been transferred into the wells of the microtitre plate, the resulting light signal is measured after addition of the LTD4 (3×10^−8 M) in the luminometer.

human CysLT1 receptor = target: T2, human CysLT1 receptor (Homo sapiens, UniProt Q9Y271); test: Cellular in vitro test to determine the CysLT1 activity (aequorin luminescence, LTD4 stimulation); type: cell-based; conditions: CHO K1 cells with aequorin and human CysLT1 receptor; agonist LTD4 3×10^−9 M
T2 construct: expressed in transfected cells; host or cells: CHO K1 (ATCC) constitutively expressing aequorin
T2 sequence (Q9Y271 1-337): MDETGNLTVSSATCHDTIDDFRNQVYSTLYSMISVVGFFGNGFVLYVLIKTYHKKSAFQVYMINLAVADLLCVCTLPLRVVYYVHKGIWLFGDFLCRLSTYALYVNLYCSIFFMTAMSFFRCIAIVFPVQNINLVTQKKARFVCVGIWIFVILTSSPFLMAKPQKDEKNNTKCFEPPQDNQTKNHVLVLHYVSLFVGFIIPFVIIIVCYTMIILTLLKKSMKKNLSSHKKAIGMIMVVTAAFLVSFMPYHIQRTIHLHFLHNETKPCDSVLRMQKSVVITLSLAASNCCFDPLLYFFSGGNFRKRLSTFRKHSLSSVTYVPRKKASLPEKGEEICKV
From the text: 2. Cellular In Vitro Test to Determine the CysLT1 Activity
A recombinant cell line is used to identify antagonists of the human cysteinyl-leukotriene 1 receptor (CysLT1R) and to quantify the activity of the substances described herein. The cell is originally derived from a hamster ovary epithelial cell (Chinese Hamster Ovary, CHO K1, ATCC: American Type Culture Collection, Manassas, Va. 20108, USA). The test cell line constitutively expresses the calcium-sensitive photoprotein aequorin which, after reconstitution with the cofactor coelenterazine, emits light when the cytoplasmic calcium concentration is increased (Rizzuto R, Simpson A W, Brini M, Pozzan T.; Nature 358 (1992) 325-327). The cell is additionally stably transfected with the human CysLT1 receptor (Lynch et al., Nature 399 (1999) 789-793). The resulting CysLT1R test cell responds to stimulation of the recombinant CysLT1 receptor (agonist: leukotriene D4 (LTD4)) with an intracellular release of calcium ions, which can be quantified through the resulting aequorin luminescence with a suitable luminometer (Milligan G, Marshall F, Rees S. Trends in Pharmacological Sciences 17 (1996) 235-237). Preincubation with antagonists of the CysLT1 receptor reduces the calcium release induced by the agonist LTD4 and thus the measured amount of light.
as §1, with “CaCl2,” for “CaCl2;”, “(3×10^−9M)” for “(3×10^−8 M)”

[1] = system: isolated guinea pig hearts; test: Langendorff guinea pig heart: perfusion pressure and left ventricular pressure after LTC4
Procedure: 3. […] to Detect the Cardiovascular Effect: Langendorff Guinea Pig Heart
The heart is removed after opening the chest cavity of anaesthetized guinea pigs and is introduced into a conventional Langendorff apparatus. The coronary arteries are subjected to a constant volume (10 ml/min) perfusion, and the perfusion pressure arising thereby is recorded via an appropriate pressure transducer. A decrease in the perfusion pressure in this arrangement corresponds to a relaxation of the coronary arteries. At the same time, the pressure developed by the heart during each contraction (the left ventricular pressure) is measured by a balloon introduced into the left ventricle, and a further pressure transducer. The rate at which the isolated heart beats is found by calculation from the number of contractions per unit time.
To detect the effect of CysLT2 receptor antagonists, the perfusion with the agonist LTC4 (10^−8 M) is started 15 minutes before addition of increasing concentrations of the test substance (10^−8 to 10^−6 M).

[2] = LTC4 (10^−8M) + test sub. (10^−6M)
[3] = LTC4 (10^−8M) + test sub. (10^−7M)
[4] = LTC4 (10^−8M) + test sub. (10^−8M)

IC50 (human CysLT2 receptor) [µM] | IC50 (human CysLT1 receptor) [µM] | Compound | melting point [°C] | Left ventricular pressure relative to control without LTC4 [1, 2] [%] | Perfusion pressure relative to control without LTC4 [1, 2] [%] | Left ventricular pressure relative to control without LTC4 [1, 3] [%] | Perfusion pressure relative to control without LTC4 [1, 3] [%] | Left ventricular pressure relative to control without LTC4 [1, 4] [%] | Perfusion pressure relative to control without LTC4 [1, 4] [%]
– | – | O=C(O)c1ccc(OCCCc2ccc(OCCCCOc3ccccc3)cc2)c(C(=O)NC2CCCC(C(=O)O)C2)c1 (racemic) [Example 12, 3-{[(3-Carboxycyclohexyl)amino]carbonyl}-4-{3-[4-(4-phenoxybutoxy)phenyl]-propoxy}benzoic acid (racemate A)] | > 210 | – | – | – | – | – | –
– | – | O=C(O)c1ccc(OCCCc2ccc(OCc3ccc(-c4ccccc4)cc3)cc2)c(C(=O)N2CCC(C(=O)O)CC2)c1 [Example 13, 1-(2-{3-[4-(1,1′-Biphenyl-4-ylmethoxy)phenyl]propoxy}-5-carboxybenzoyl)-4-piperidinecarboxylic acid] | 193 to 194 | – | – | – | – | – | –
– | – | O=C(O)c1ccc(OCCCc2ccc(OCCCCOc3ccccc3)cc2)c(C(=O)N2CCC(C(=O)O)CC2)c1 [Example 15, 1-(5-Carboxy-2-{3-[4-(4-phenoxybutoxy)phenyl]propoxy}benzoyl)-4-piperidine-carboxylic acid] | 142 to 143 | – | – | – | – | – | –
– | – | O=C(O)c1ccc(OCCCc2ccc(OCCCCOc3ccccc3)cc2)c(C(=O)NC2CCC(C(=O)O)CC2)c1 (stereo not shown) [Example 16, 3-{[(4-Carboxycyclohexyl)amino]carbonyl}-4-{3-[4-(4-phenoxybutoxy)phenyl]-propoxy}benzoic acid] | 163 to 165 | – | – | – | – | – | –
– | – | O=C(O)CC1CCN(C(=O)c2cc(C(=O)O)ccc2OCCCc2ccc(OCCCCOc3ccccc3)cc2)CC1 [Example 18, 3-{[4-(Carboxymethyl)-1-piperidinyl]carbonyl}-4-{3-[4-(4-phenoxybutoxy)phenyl]-propoxy}benzoic acid] | 192 | – | – | – | – | – | –
0.005 | 2 | O=C(O)c1ccc(OCCCc2ccc(OCCCC3CCCCC3)cc2)c(C(=O)NC2CCCC(C(=O)O)C2)c1 (stereo not shown) [Example 23, 3-{[(3-Carboxycyclohexyl)amino]carbonyl}-4-{3-[4-(3-cyclohexylpropoxy)phenyl]-propoxy}benzoic acid] | 160 | 97 | 111 | 84 | 127 | 72 | 133
0.014 | 2.5 | O=C(O)c1ccc(OCCCc2ccc(OCCCC3CCCCC3)cc2)c(C(=O)N2CCC(C(=O)O)CC2)c1 [Example 31, 1-(5-Carboxy-2-{3-[4-(3-cyclohexylpropoxy)phenyl]propoxy}benzoyl)piperidine-4-carboxylic acid] | 183.4 to 184.5 | 87 | 112 | 81 | 123 | 67 | 128
0.015 | > 10 | CC(C)Oc1ccc(COc2ccc(CCCOc3ccc(C(=O)O)cc3C(=O)NC3CCCC(C(=O)O)C3)cc2)cc1 (stereo not shown) [Example 33, 3-{[(3-Carboxycyclohexyl)amino]carbonyl}-4-(3-{4-[(4-isopropoxybenzyl)oxy]-phenyl}propoxy)benzoic acid] | – | 84 | 108 | 57 | 121 | 44 | 122

Compound | IC50 (human CysLT2 receptor) [µM] | IC50 (human CysLT1 receptor) [µM] | melting point [°C] | Left ventricular pressure relative to control without LTC4 [1, 2] [%] | Perfusion pressure relative to control without LTC4 [1, 2] [%] | Left ventricular pressure relative to control without LTC4 [1, 3] [%] | Perfusion pressure relative to control without LTC4 [1, 3] [%] | Left ventricular pressure relative to control without LTC4 [1, 4] [%] | Perfusion pressure relative to control without LTC4 [1, 4] [%]
O=C(O)c1ccc(OCCCc2ccc(OCCCCOc3ccccc3)cc2)c(C(=O)NC2CCCC(C(=O)O)C2)c1 (racemic) [Example 11, 3-{[(3-Carboxycyclohexyl)amino]carbonyl}-4-{3-[4-(4-phenoxybutoxy)phenyl]-propoxy}benzoic acid (racemate B)] | 0.035 | > 10 | 182 to 183 | 79 | 108 | 60 | 112 | 44 | 125
